The molecules below were run against wild type CK1δ (Homo sapiens, UniProt P48730) (assay: CK1δ kinase assay (Kinase-Glo)). Conditions: 10 μM ATP, 2 nM wild type CK1δ, 85 min at 25° C.; read-out: CK1δ inhibition (IC50).
Chain of wild type CK1δ (P48730 whole entry): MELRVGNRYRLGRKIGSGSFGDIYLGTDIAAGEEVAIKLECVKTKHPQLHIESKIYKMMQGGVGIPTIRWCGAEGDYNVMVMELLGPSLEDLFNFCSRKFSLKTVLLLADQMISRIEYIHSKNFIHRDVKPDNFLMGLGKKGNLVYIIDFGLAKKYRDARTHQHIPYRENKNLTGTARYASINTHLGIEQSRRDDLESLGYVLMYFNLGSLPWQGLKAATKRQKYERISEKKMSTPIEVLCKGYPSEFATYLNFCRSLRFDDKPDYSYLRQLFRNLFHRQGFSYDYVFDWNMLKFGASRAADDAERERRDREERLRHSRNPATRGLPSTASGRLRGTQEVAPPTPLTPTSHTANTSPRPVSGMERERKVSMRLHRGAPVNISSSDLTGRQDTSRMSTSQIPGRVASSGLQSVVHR
Format: biochemical
Description: The CK1δ kinase assay was performed with a buffer (40 μL, pH 7.5) containing 50 mM Tris, 10 mM MgCl2, 1 mM dithiothreitol, 100 μg/mL BSA with 10 μM ATP, 2 nM wild type CK1δ, and 42 μM peptide substrate PLSRTLpSVASLPGL (Flotow et al., 1990) in the presence of 1 μL of a CK1δ inhibitor (e.g., a compound of the present application) or 4% DMSO (e.g., as control). The reaction mixture was incubated for 85 min at 25° C.; detection was carried out as described for the Kinase-Glo Assay (Promega). Luminescent output was measured on the Perkin Elmer Envision plate reader (PerkinElmer, Waltham, Mass.).
`Fc1ccc(-c2nc3cnccn3c2-c2ccncc2)cc1` [Compound 1-5, 2-(4-fluorophenyl)-3-(pyridin-4-yl)imidazo[1,2-a]pyrazine] was tested, and the IC50 was 499 nM. Molecule `Fc1ccc(-c2nc3n(c2-c2ccncc2)CCNC3)cc1` [Compound 1-6, 2-(4-fluorophenyl)-3-(pyridin-4-yl)-5,6,7,8-tetrahydroimidazo[1,2-a]pyrazine] has an IC50 of 254 nM. `CC(=O)N1CCn2c(nc(-c3ccc(F)cc3)c2-c2ccncc2)C1` [Compound 1-7, 1-(2-(4-fluorophenyl)-3-(pyridin-4-yl)-5,6-dihydroimidazo[1,2-a]pyrazin-7(8H)-yl)ethan-1-one] was tested, and the IC50 was 614 nM. For `O=C1OCc2nccc(-c3c(-c4ccc(F)cc4)nc4cnccn34)c21` [Compound 1-8, 4-(2-(4-fluorophenyl)imidazo[1,2-a]pyrazin-3-yl)furo[3,4-b]pyridin-5(7H)-one], the IC50 was > 100000 nM. With `Fc1ccc(-c2nn3c(c2-c2ccncc2)CN(Cc2ccccc2)CC3)cc1` [Compound 1-12, 5-benzyl-2-(4-fluorophenyl)-3-(pyridin-4-yl)-4,5,6,7-tetrahydropyrazolo[1,5-a]pyrazine] the IC50 was 74.9 nM. Work on `Fc1ccc(-c2nn3c(c2-c2ccncc2)CNCC3)cc1` [Compound 1-13, 2-(4-fluorophenyl)-3-(pyridin-4-yl)-4,5,6,7-tetrahydropyrazolo[1,5-a]pyrazine] yielded an IC50 of 67.3 nM. Work on `Fc1ccc(-n2nc3c(c2-c2ccncc2)CCCC3)cc1` [Compound 1-16, 2-(4-fluorophenyl)-3-(pyridin-4-yl)-4,5,6,7-tetrahydro-2H-indazole] yielded an IC50 of 9780 nM. Work on `Fc1ccc(-c2nn3c(c2-c2ccncc2)COCC3)cc1` [Compound 1-27, 2-(4-fluorophenyl)-3-(pyridin-4-yl)-6,7-dihydro-4H-pyrazolo[5,1-c][1,4]oxazine] yielded an IC50 of 163 nM. `CCC(=O)N1CCn2nc(-c3ccc(F)cc3)c(-c3ccncc3)c2C1` [Compound 1-31, 1-(2-(4-fluorophenyl)-3-(pyridin-4-yl)-6,7-dihydropyrazolo[1,5-a]pyrazin-5(4H)-yl)propan-1-one] gave an IC50 of 81.3 nM. Molecule `CC(C)C(=O)N1CCn2nc(-c3ccc(F)cc3)c(-c3ccncc3)c2C1` [Compound 1-32, 1-(2-(4-fluorophenyl)-3-(pyridin-4-yl)-6,7-dihydropyrazolo[1,5-a]pyrazin-5(4H)-yl)-2-methylpropan-1-one] has an IC50 of 368 nM. In the case of `CC(=O)N1CCn2nc(-c3ccc(F)cc3)c(-c3ccnc(C)c3)c2C1` [Compound 1-33, 1-(2-(4-fluorophenyl)-3-(2-methylpyridin-4-yl)-6,7-dihydropyrazolo[1,5-a]pyrazin-5(4H)-yl)ethan-1-one], the IC50 is reported as 177 nM. With `CC(=O)N1CCn2nc(-c3ccc(F)cc3)c(-c3cc[n+]([O-])c(C)c3)c2C1` [Compound 1-34, 4-(5-acetyl-2-(4-fluorophenyl)-4,5,6,7-tetrahydropyrazolo[1,5-a]pyrazin-3-yl)-2-methylpyridine-1-oxide] the IC50 was > 100000 nM. In the case of `CN1CCC(C(=O)N2CCn3nc(-c4ccc(F)cc4)c(-c4ccncc4)c3C2)CC1` [Compound 1-36, (2-(4-fluorophenyl)-3-(pyridin-4-yl)-6,7-dihydropyrazolo[1,5-a]pyrazin-5(4H)-yl)(1-methylpiperidin-4-yl)methanone], the IC50 is reported as 279 nM. With `CN1CCn2nc(-c3ccc(F)cc3)c(-c3ccncc3)c2C1` [Compound 1-42, 2-(4-fluorophenyl)-5-methyl-3-(pyridin-4-yl)-4,5,6,7-tetrahydropyrazolo[1,5-a]pyrazine] the IC50 was 161 nM. `C[C@@H]1CNC(=O)c2c(-c3ccncc3)c(-c3ccc(F)cc3)nn21` [Compound 1-44, (R)-2-(4-fluorophenyl)-7-methyl-3-(pyridin-4-yl)-6,7-dihydropyrazolo[1,5-a]pyrazin-4(5H)-one] was tested, and the IC50 was 1840 nM. `C[C@H]1Cn2nc(-c3ccc(F)cc3)c(-c3ccncc3)c2CO1` [Compound 1-45, (S)-2-(4-fluorophenyl)-6-methyl-3-(pyridin-4-yl)-6,7-dihydro-4H-pyrazolo[5,1-c][1,4]oxazine] gave an IC50 of 370 nM. `Fc1ccc(-c2nn3c(c2-c2ccncc2)COCCC3)cc1` [Compound 1-47, 2-(4-fluorophenyl)-3-(pyridin-4-yl)-7,8-dihydro-4H,6H-pyrazolo[5,1-c][1,4]oxazepine] was tested, and the IC50 was 686 nM. Molecule `CC(=O)N1CCn2nc(-c3ccc(F)cc3)c(-c3ccnc(C)n3)c2C1` [Compound 1-51, 1-(2-(4-fluorophenyl)-3-(2-methylpyrimidin-4-yl)-6,7-dihydropyrazolo[1,5-a]pyrazin-5(4H)-yl)ethan-1-one] has an IC50 of 963 nM. In the case of `CCc1cc(-c2c(-c3ccc(F)cc3)nn3c2CN(C(C)=O)CC3)ccn1` [Compound 1-52, 1-(3-(2-ethylpyridin-4-yl)-2-(4-fluorophenyl)-6,7-dihydropyrazolo[1,5-a]pyrazin-5(4H)-yl)ethan-1-one], the IC50 is reported as 3110 nM. Molecule `CC(=O)N1CCn2nc(-c3ccc(F)cc3)c(-c3ccnc(C(C)C)c3)c2C1` [Compound 1-53, 1-(2-(4-fluorophenyl)-3-(2-isopropylpyridin-4-yl)-6,7-dihydropyrazolo[1,5-a]pyrazin-5(4H)-yl)ethan-1-one] has an IC50 of 17000 nM. `Nc1cc(-c2c(-c3ccc(F)cc3)nn3c2OCC3)ccn1` [Compound 1-54, 4-(6-(4-fluorophenyl)-2,3-dihydropyrazolo[5,1-b]oxazol-7-yl)pyridin-2-amine] showed an IC50 of 800 nM. For `Cc1cc(-c2c(-c3ccc(F)cc3)nn3c2CN(C(=O)C2CCN(C)CC2)CC3)ccn1` [Compound 1-55, (2-(4-fluorophenyl)-3-(2-methylpyridin-4-yl)-6,7-dihydropyrazolo[1,5-a]pyrazin-5(4H)-yl)(1-methylpiperidin-4-yl)methanone], the IC50 was 496 nM. For `Cc1cc(-c2c(-c3ccc(F)cc3)nn3c2CN(C)CC3)ccn1` [Compound 1-56, 2-(4-fluorophenyl)-5-methyl-3-(2-methylpyridin-4-yl)-4,5,6,7-tetrahydropyrazolo[1,5-a]pyrazine], the IC50 was 106 nM. With `Nc1cc(-c2c(-c3ccc(F)cc3)nn3c2CNCC3)ccn1` [Compound 1-58, 4-(2-(4-fluorophenyl)-4,5,6,7-tetrahydropyrazolo[1,5-a]pyrazin-3-yl)pyridin-2-amine] the IC50 was 723 nM. `Cn1cc(-c2ccncc2)c(-c2ccc(F)cc2)c1C#N` [Compound 3-1, 3-(4-fluorophenyl)-1-methyl-4-(pyridin-4-yl)-1H-pyrrole-2-carbonitrile] showed an IC50 of 180 nM. Work on `Cn1cc(-c2ccncc2)c(-c2ccc(F)cc2)c1C(N)=O` [Compound 3-2, 3-(4-fluorophenyl)-1-methyl-4-(pyridin-4-yl)-1H-pyrrole-2-carboxamide] yielded an IC50 of 11100 nM. With `COC(=O)c1[nH]cc(-c2ccncc2)c1-c1ccc(F)cc1` [Compound 3-4, methyl 3-(4-fluorophenyl)-4-(pyridin-4-yl)-1H-pyrrole-2-carboxylate] the IC50 was 480 nM. For `COC(=O)c1c(-c2ccc(F)cc2)c(-c2ccncc2)cn1C` [Compound 3-5, methyl 3-(4-fluorophenyl)-1-methyl-4-(pyridin-4-yl)-1H-pyrrole-2-carboxylate], the IC50 was 7710 nM. With `Cn1nc(-c2ccncc2)c(-c2ccc(F)cc2)n1` [Compound 3-6, 4-(5-(4-fluorophenyl)-2-methyl-2H-1,2,3-triazol-4-yl)pyridine] the IC50 was 178 nM. Work on `Cn1nnc(-c2ccc(F)cc2)c1-c1ccncc1` [Compound 3-9, 4-(4-(4-fluorophenyl)-1-methyl-1H-1,2,3-triazol-5-yl)pyridine] yielded an IC50 of 21400 nM. `Cn1cc(-c2ccncc2)c(-c2ccccc2F)n1` [Compound 3-14, 4-(3-(2-fluorophenyl)-1-methyl-1H-pyrazol-4-yl)pyridine] showed an IC50 of 1080 nM. In the case of `Cn1cc(-c2ccncc2)c(-c2ccc(F)cc2F)n1` [Compound 3-15, 4-(3-(2,4-difluorophenyl)-1-methyl-1H-pyrazol-4-yl)pyridine], the IC50 is reported as 531 nM. `Cn1cc(-c2ccncc2)c(-c2ccc(F)c(F)c2)n1` [Compound 3-16, 4-(3-(3,4-difluorophenyl)-1-methyl-1H-pyrazol-4-yl)pyridine] gave an IC50 of 497 nM. `Cn1cc(-c2ccncc2)c(-c2cc(F)cc(F)c2)n1` [Compound 3-17, 4-(3-(3,5-difluorophenyl)-1-methyl-1H-pyrazol-4-yl)pyridine] was tested, and the IC50 was 1020 nM. In the case of `Cn1cc(-c2ccncc2)c(-c2ccc(F)cc2Cl)n1` [Compound 3-18, 4-(3-(2-chloro-4-fluorophenyl)-1-methyl-1H-pyrazol-4-yl)pyridine], the IC50 is reported as 4390 nM. For `Cn1cc(-c2ccncc2)c(-c2cccc(F)c2)n1` [Compound 3-19, 4-(3-(3-fluorophenyl)-1-methyl-1H-pyrazol-4-yl)pyridine], the IC50 was 281 nM. In the case of `Fc1ccc(-c2nocc2-c2ccncc2)cc1` [Compound 3-20, 3-(4-fluorophenyl)-4-(pyridin-4-yl)isoxazole], the IC50 is reported as 3660 nM. Molecule `Fc1ccc(-n2nncc2-c2ccncc2)cc1` [Compound 4-1, 4-(1-(4-fluorophenyl)-1H-1,2,3-triazol-5-yl)pyridine] has an IC50 of 215 nM. Work on `Cn1cc(-c2ccnc3c2C(=O)OC3)c(-c2ccc(F)cc2)c1C#N` [Compound 5-1, 3-(4-fluorophenyl)-1-methyl-4-(5-oxo-5,7-dihydrofuro[3,4-b]pyridin-4-yl)-1H-pyrrole-2-carbonitrile] yielded an IC50 of 132 nM. For `Cn1cc(-c2ccnc3[nH]cnc23)c(-c2ccc(F)cc2)c1C#N` [Compound 5-4, 3-(4-fluorophenyl)-4-(3H-imidazo[4,5-b]pyridin-7-yl)-1-methyl-1H-pyrrole-2-carbonitrile], the IC50 was 2200 nM. In the case of `O=C1OCc2nccc(-c3cn4c(c3-c3ccc(F)cc3)C(=O)NCC4)c21` [Compound 5-5, 4-(8-(4-fluorophenyl)-1-oxo-1,2,3,4-tetrahydropyrrolo[1,2-a]pyrazin-7-yl)furo[3,4-b]pyridin-5(7H)-one], the IC50 is reported as 320 nM.
